# Laboratory results from patent publication US20260103461A1, “ESTROGEN RECEPTOR MODULATORS AND USES THEREOF” (Olema Pharmaceuticals, Inc., priority 2022, published 2026).
# Molecular target: T1, estrogen receptor (Homo sapiens, UniProt P03372)
# T1 construct: endogenous in cells; host or cells: ECC-1 cells
# T1 sequence (P03372 1-595): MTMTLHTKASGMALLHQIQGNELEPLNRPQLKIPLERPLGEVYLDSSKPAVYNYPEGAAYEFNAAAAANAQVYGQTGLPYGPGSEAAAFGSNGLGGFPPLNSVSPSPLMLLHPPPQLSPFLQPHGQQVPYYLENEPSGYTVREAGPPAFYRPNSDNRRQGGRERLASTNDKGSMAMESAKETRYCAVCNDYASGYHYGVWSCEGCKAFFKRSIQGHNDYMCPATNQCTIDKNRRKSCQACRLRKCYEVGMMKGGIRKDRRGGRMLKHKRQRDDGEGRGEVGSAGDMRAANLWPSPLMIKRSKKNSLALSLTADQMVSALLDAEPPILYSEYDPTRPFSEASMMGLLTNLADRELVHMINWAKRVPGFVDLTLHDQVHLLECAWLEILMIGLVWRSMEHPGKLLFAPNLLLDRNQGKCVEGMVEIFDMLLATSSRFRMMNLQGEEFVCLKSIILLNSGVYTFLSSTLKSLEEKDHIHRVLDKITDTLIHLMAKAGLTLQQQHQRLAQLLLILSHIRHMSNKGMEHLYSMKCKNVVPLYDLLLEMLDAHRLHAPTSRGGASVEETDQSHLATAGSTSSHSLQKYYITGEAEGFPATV
# Assay: AP (alkaline phosphatase) assay in ECC-1 cells, agonist mode and antagonist mode
# Assay type: cell-based
# Settings: 3 days, absence of E2 (agonist mode) or 500 pM E2 (antagonist mode), AP activity normalized to 500 pM E2 alone
# Description: ECC-1 cells were trypsinized and resuspended in hormone-depleted media and plated at a density of 15 k cells per well into a 96-well plate for at least 4 hours. Cells were treated with test compounds in the absence of E2 (for agonist mode) or in the presence of 500 pM E2 (for antagonist mode) for 3 days and plates were subsequently frozen at −80° C. Thawed plates were incubated with a chromogenic substrate of AP, p-nitrophenyl phosphate (Thermo Fisher Scientific), for 40 minutes at 42° C., and absorbances were read at 405 nm. AP activity was normalized to the activity of 500 pM E2 alone.
# The compound numbers correspond to the compound numbers of Table 1 and 2. Compounds having an activity designated as “+” provided estrogen receptor agonism having (i) at least 80% increase in the E2-normalized signal in the AP assay (agonist mode) and (ii) no more than 80% reduction in the E2-normalized signal in the AP assay (antagonist mode). Compounds having an activity designated as “++” provided estrogen receptor antagonism having (i) between 10% and 80% increase in the E2-normalized signal in the AP assay (agonist mode) and (ii) between 10% and 80% reduction in the E2-normalized signal in the AP assay (antagonist mode).
row,Compound,"Activity (estrogen receptor modulation, agonism and antagonism)"
1,"CCCN1CC(Oc2ccc([C@@H]3c4[nH]c5ccccc5c4C[C@@H](C)N3CC(C)(C)F)s2)C1 [Example I-1, 3-({5-[(1S,3R)-2-(2-fluoro-2-methylpropyl)-3-methyl-1H,2H,3H,4H,9H-pyrido[3,4-b]indol-1-yl]thiophen-2-yl}oxy)-1-propylazetidine]",++ (estrogen receptor antagonism having (i) between 10% and 80% increase in the E2-normalized signal in the AP assay (agonist mode) and (ii) between 10% and 80% reduction in the E2-normalized signal in the AP assay (antagonist mode))
2,"C[C@@H]1Cc2c([nH]c3ccccc23)[C@@H](c2ccc(OC3CN(CCCF)C3)s2)N1CC(C)(C)F [Example I-2, 3-({5-[(1S,3R)-2-(2-fluoro-2-methylpropyl)-3-methyl-1H,2H,3H,4H,9H-pyrido[3,4-b]indol-1-yl]thiophen-2-yl}oxy)-1-(3-fluoropropyl)azetidine]",++ (estrogen receptor antagonism having (i) between 10% and 80% increase in the E2-normalized signal in the AP assay (agonist mode) and (ii) between 10% and 80% reduction in the E2-normalized signal in the AP assay (antagonist mode))
3,"CCCN1CC(Oc2ncc([C@@H]3c4[nH]c5ccccc5c4C[C@@H](C)N3CC(C)(C)F)s2)C1 [Example I-3, 5-[(1S,3R)-2-(2-fluoro-2-methylpropyl)-3-methyl-1H,2H,3H,4H,9H-pyrido[3,4-b]indol-1-yl]-2-[(1-propylazetidin-3-yl)oxy]-1,3-thiazole]",++ (estrogen receptor antagonism having (i) between 10% and 80% increase in the E2-normalized signal in the AP assay (agonist mode) and (ii) between 10% and 80% reduction in the E2-normalized signal in the AP assay (antagonist mode))
4,"C[C@@H]1Cc2c([nH]c3ccccc23)[C@@H](c2ccc(O[C@H]3CCN(CCCF)C3)s2)N1CC(C)(C)F [Example I-4, (3S)-3-({5-[(1S,3R)-2-(2-fluoro-2-methylpropyl)-3-methyl-1H,2H,3H,4H,9H-pyrido[3,4-b]indol-1-yl]thiophen-2-yl}oxy)-1-(3-fluoropropyl)pyrrolidine]",+++ (estrogen receptor antagonism (i) with pIC50 greater than 7.5 and at least a 10% reduction in the E2-normalized signal in the AP assay (antagonist mode); and no more than 10% increase in E2-normalized signal in the AP assay (agonist mode))
5,"C[C@@H]1Cc2c([nH]c3ccccc23)[C@@H](c2ccc(O[C@@H]3CCN(CCCF)C3)s2)N1CC(C)(C)F [Example I-5, (3R)-3-({5-[(1S,3R)-2-(2-fluoro-2-methylpropyl)-3-methyl-1H,2H,3H,4H,9H-pyrido[3,4-b]indol-1-yl]thiophen-2-yl}oxy)-1-(3-fluoropropyl)pyrrolidine]",+ (estrogen receptor agonism having (i) at least 80% increase in the E2-normalized signal in the AP assay (agonist mode) and (ii) no more than 80% reduction in the E2-normalized signal in the AP assay (antagonist mode))
6,"C[C@@H]1Cc2c([nH]c3ccccc23)[C@@H](c2ncc(O[C@H]3CCN(CCCF)C3)s2)N1CC(C)(C)F [Example I-6, 2-[(1S,3R)-2-(2-fluoro-2-methylpropyl)-3-methyl-1H,2H,3H,4H,9H-pyrido[3,4-b]indol-1-yl]-5-{[(3S)-1-(3-fluoropropyl)pyrrolidin-3-yl]oxy}-1,3-thiazole]",++ (estrogen receptor antagonism having (i) between 10% and 80% increase in the E2-normalized signal in the AP assay (agonist mode) and (ii) between 10% and 80% reduction in the E2-normalized signal in the AP assay (antagonist mode))
7,"C[C@@H]1Cc2c([nH]c3ccccc23)[C@@H](c2ccc(O[C@H]3CCN(CCC(F)F)C3)s2)N1CC(C)(C)F [Example I-8, (1S,3R)-1-(5-(((S)-1-(3,3-difluoropropyl)pyrrolidin-3-yl)oxy)thiophen-2-yl)-2-(2-fluoro-2-methylpropyl)-3-methyl-2,3,4,9-tetrahydro-1H-pyrido[3,4-b]indole]",++ (estrogen receptor antagonism having (i) between 10% and 80% increase in the E2-normalized signal in the AP assay (agonist mode) and (ii) between 10% and 80% reduction in the E2-normalized signal in the AP assay (antagonist mode))
8,"C[C@@H]1Cc2c([nH]c3ccccc23)[C@@H](c2ncc(OC3CN(CCCF)C3)s2)N1CC(C)(C)F [Example I-9, 2-[(1S,3R)-2-(2-fluoro-2-methyl-propyl)-3-methyl-1,3,4,9-tetrahydropyrido[3,4-b]indol-1-yl]-5-[1-(3-fluoropropyl)azetidin-3-yl]oxy-thiazole]",++ (estrogen receptor antagonism having (i) between 10% and 80% increase in the E2-normalized signal in the AP assay (agonist mode) and (ii) between 10% and 80% reduction in the E2-normalized signal in the AP assay (antagonist mode))
9,"CCCN1CC[C@@H](Oc2ccc([C@@H]3c4[nH]c5ccccc5c4C[C@@H](C)N3CC(C)(C)F)s2)C1 [Example I-10, (1S,3R)-2-(2-fluoro-2-methyl-propyl)-3-methyl-1-[5-[(3R)-1-propylpyrrolidin-3-yl]oxy-2-thienyl]-1,3,4,9-tetrahydropyrido[3,4-b]indole]",+ (estrogen receptor agonism having (i) at least 80% increase in the E2-normalized signal in the AP assay (agonist mode) and (ii) no more than 80% reduction in the E2-normalized signal in the AP assay (antagonist mode))
10,"C[C@@H]1Cc2c([nH]c3ccccc23)[C@@H](c2ncc(O[C@@H]3CCN(CCCF)C3)s2)N1CC(C)(C)F [Example I-11, 2-[(1S,3R)-2-(2-fluoro-2-methyl-propyl)-3-methyl-1,3,4,9-tetrahydropyrido[3,4-b]indol-1-yl]-5-[(3R)-1-(3-fluoropropyl)pyrrolidin-3-yl]oxy-thiazole]",++ (estrogen receptor antagonism having (i) between 10% and 80% increase in the E2-normalized signal in the AP assay (agonist mode) and (ii) between 10% and 80% reduction in the E2-normalized signal in the AP assay (antagonist mode))
11,"C[C@@H]1Cc2c([nH]c3ccccc23)[C@@H](c2ccc(OC3CN(CCCF)C3)s2)N1CC(F)(F)CO [Example I-12, 2,2-difluoro-3-[(1S,3R)-1-[5-[1-(3-fluoropropyl)azetidin-3-yl]oxy-2-thienyl]-3-methyl-1,3,4,9-tetrahydropyrido[3,4-b]indol-2-yl]propan-1-ol]",+++ (estrogen receptor antagonism (i) with pIC50 greater than 7.5 and at least a 10% reduction in the E2-normalized signal in the AP assay (antagonist mode); and no more than 10% increase in E2-normalized signal in the AP assay (agonist mode))
12,"C[C@@H]1Cc2c([nH]c3ccccc23)[C@@H](c2ccc(O[C@@H]3CCN(CCCF)C3)s2)N1CC(F)(F)CO [Example I-13, 2,2-difluoro-3-[(1S,3R)-1-[5-[(3R)-1-(3-fluoropropyl)pyrrolidin-3-yl]oxy-2-thienyl]-3-methyl-1,3,4,9-tetrahydropyrido[3,4-b]indol-2-yl]propan-1-ol]",+++ (estrogen receptor antagonism (i) with pIC50 greater than 7.5 and at least a 10% reduction in the E2-normalized signal in the AP assay (antagonist mode); and no more than 10% increase in E2-normalized signal in the AP assay (agonist mode))
13,"CCN1CC[C@@H](Oc2ccc([C@@H]3c4[nH]c5ccccc5c4C[C@@H](C)N3CC(C)(C)F)s2)C1 [Example I-14, (1S,3R)-1-[5-[(3R)-1-ethylpyrrolidin-3-yl]oxy-2-thienyl]-2-(2-fluoro-2-methyl-propyl)-3-methyl-1,3,4,9-tetrahydropyrido[3,4-b]indole]",+ (estrogen receptor agonism having (i) at least 80% increase in the E2-normalized signal in the AP assay (agonist mode) and (ii) no more than 80% reduction in the E2-normalized signal in the AP assay (antagonist mode))
14,"C[C@@H]1Cc2c([nH]c3ccccc23)[C@@H](c2ccc(O[C@@H]3CCN(CCC(F)F)C3)s2)N1CC(C)(C)F [Example I-15, (1S,3R)-1-[5-[(3R)-1-(3,3-difluoropropyl)pyrrolidin-3-yl]oxy-2-thienyl]-2-(2-fluoro-2-methyl-propyl)-3-methyl-1,3,4,9-tetrahydropyrido[3,4-b]indole]",+ (estrogen receptor agonism having (i) at least 80% increase in the E2-normalized signal in the AP assay (agonist mode) and (ii) no more than 80% reduction in the E2-normalized signal in the AP assay (antagonist mode))
